{
  "source": "patent US20260226414A1",
  "about": "“COMPOSITION FOR INDUCING DIFFERENTIATION OF MESENCHYMAL STEM CELLS INTO ADIPOCYTES” (ENCELL CO., LTD, priority 2023, published 2026)",
  "type_in_all_cases": "cell-based",
  "key": {"[1]": {"test_system": "human adipose-derived mesenchymal stem cells", "assay": "Observation of oil droplet formation after 72 hours of culture with nervonic acid", "conditions": "72 hours treatment, different concentrations", "protocol": "Human adipose-derived mesenchymal stem cells were treated with nervonic acid at different concentrations for 72 hours and cultured, after which the concentration at which oil droplets were generated was observed."}, "[2]": {"test_system": "human adipose-derived mesenchymal stem cells (AD-MSCs)", "assay": "Western blotting of adipogenesis markers at the protein level", "conditions": "160 μM, day 14, Western blotting", "protocol": "After inducing adipogenesis for 14 days by treating human adipose-derived mesenchymal stem cells (AD-MSCs) with 160 μM nervonic acid, the expression of adipogenesis markers at the protein level was compared using Western blotting.\nSpecifically, protein for Western blotting was extracted from mesenchymal stem cells with adipogenesis completed using RIPA lysis buffer, and Western blotting was performed using the primary antibodies listed in Table 2 below."}, "[3]": {"test_system": "human umbilical cord-derived mesenchymal stem cells (WJ-MSCs)", "assay": "Adipogenesis induction, Oil Red O staining quantification", "protocol": "(§1) Specifically, for Oil Red O (Sigma-Aldrich, St. Louis, MO, USA) staining, after completion of differentiation, the culture medium was removed from each well of the plate, followed by washing twice with 1×PBS and then fixing with 4% paraformaldehyde (PFA) for 10 minutes. Washing three times with deionized water and then washing once with 60% isopropyl alcohol were performed. The Oil Red O stock solution was diluted with deionized water in a ratio of 3:2 to prepare an Oil Red O working solution, 1 ml of which was then added to each well of the plate followed by reaction at room temperature for 30 minutes. After washing once with 60% isopropyl alcohol and washing three times with deionized water, the red-stained oil droplets were observed and photographed under a microscope, and the results are shown in FIG. 4a.\n(§2) Specifically, the stained oil droplets were dissolved in 100% isopropyl alcohol, and 100 μl of the result was transferred to each well of the 96-well plate, followed by measurement using a microplate reader (absorbance at 540 nm). […]\nAfter inducing adipogenesis for 7, 14, and 21 days by treating human umbilical cord-derived mesenchymal stem cells (WJ-MSCs) with nervonic acid, the oil droplets stained by Oil Red O staining are shown in FIG. 10a, and the results of quantification of the stained oil droplets are shown in FIG. 10b."}, "[4]": {"test_system": "human adipose-derived mesenchymal stem cells", "assay": "Cell viability / cytotoxicity by Cell Counting Kit-8 (CCK-8)", "conditions": "0-280 μM nervonic acid, vs DMSO control", "protocol": "The isolated human adipose-derived mesenchymal stem cells were treated with nervonic acid at different concentrations and cultured for 72 hours, after which cytotoxicity was measured. Specifically, Cell Counting Kit-8 (CCK-8, Dojindo, Tokyo, Japan) was used, and 1×10^3/well of cells were plated on a 96-well plate, stabilized for 24 hours, and then treated with nervonic acid at different concentrations (0, 40, 80, 120, 160, 200, 240, 280 μM), including the control group (DMSO), and cell viability was measured.\nBefore confirming the efficacy of nervonic acid to promote adipogenesis, cell viability was reconfirmed by treating cells with nervonic acid at various concentrations for 7 days. The specific method is the same as the method described above, and cell viability was measured by treatment with nervonic acid at different concentrations (0, 40, 80, 120, 160, 200, 240, 280 μM), including the control group (DMSO)."}, "[5]": {"test_system": "human adipose-derived mesenchymal stem cells (AD-MSCs)", "assay": "Adipogenesis induction, Oil Red O staining and quantification (absorbance at 540 nm)", "conditions": "for Oil Red O stained oil droplets, fold increase compared to DMSO-treated control group: 160 μM, three lots of AD-MSCs", "protocol": "To determine the appropriate concentration of nervonic acid having excellent efficacy in promoting adipogenesis, adipogenesis was induced for 7 days by treating human adipose-derived mesenchymal stem cells with nervonic acid at different concentrations (0, 40, 80, 120, 160, 200, 240, 280 μM), followed by Oil Red O staining to confirm the stained oil droplets.\nas §1\nAfter inducing adipogenesis for 7 days by treating human adipose-derived mesenchymal stem cells with nervonic acid at different concentrations (0, 40, 80, 120, 160, 200, 240, 280 μM), the results of quantification of the oil droplets stained by Oil Red O staining are shown in FIG. 4b.\nSpecifically, the stained oil droplets were dissolved in 100% isopropyl alcohol, and 100 μl of the result was transferred to each well of the 96-well plate, followed by measurement using a microplate reader (absorbance at 540 nm). […] Nervonic acid (Sigma-Aldrich, St. Louis, MO, USA) was dissolved in DMSO and then stored at −80° C. before use.\nAdipogenesis was induced for 7 days by treating a total of three lots of human adipose-derived mesenchymal stem cells (AD-MSCs) with 160 μM nervonic acid, followed by observation of the oil droplets stained by Oil Red O staining, and the results are shown in FIG. 5a."}, "[6]": {"test_system": "human umbilical cord blood-derived mesenchymal stem cells (UCB-MSCs)", "assay": "Adipogenesis induction, Oil Red O staining quantification", "protocol": "as §1, §2\nAfter inducing adipogenesis for 7, 14, and 21 days by treating human umbilical cord blood-derived mesenchymal stem cells (UCB-MSCs) with nervonic acid, the oil droplets stained by Oil Red O staining are shown in FIG. 8a, and the results of quantification of the stained oil droplets are shown in FIG. 8b."}, "[7]": {"test_system": "human placenta-derived mesenchymal stem cells (PL-MSCs)", "assay": "Adipogenesis induction, Oil Red O staining quantification", "protocol": "as §1, §2\nAfter inducing adipogenesis for 7, 14, and 21 days by treating human placenta-derived mesenchymal stem cells (PL-MSCs) with nervonic acid, the oil droplets stained by Oil Red O staining are shown in FIG. 9a, and the results of quantification of the stained oil droplets are shown in FIG. 9b."}, "[8]": {"test_system": "human adipose-derived mesenchymal stem cells (AD-MSCs)", "assay": "qRT-PCR of adipogenesis markers at the mRNA level (2^-ΔΔCt)", "conditions": "160 μM, day 14, qRT-PCR", "protocol": "After inducing adipogenesis for 14 days by treating human adipose-derived mesenchymal stem cells (AD-MSCs) with 160 μM nervonic acid, the gene expression of adipogenesis markers at the mRNA level was compared using qRT-PCR.\nSpecifically, RNA for qRT-PCR was extracted from mesenchymal stem cells with adipogenesis completed using TRIZOL from Invitrogen according to the method provided by the vendor, and cDNA was synthesized using SuperScript™ IV Reverse Transcriptase from Invitrogen. qRT-PCR was performed using the primers listed in Table 1 below, and the quantified results through 2^−ΔΔCt analysis are shown in FIG. 12."}, "[9]": {"test_system": "human adipose-derived mesenchymal stem cells (AD-MSCs)", "assay": "Western blotting of adipogenesis-associated signaling molecules (phosphorylation ratios)", "conditions": "160 μM, day 14, Western blotting", "protocol": "After inducing adipogenesis for 14 days by treating human adipose-derived mesenchymal stem cells (AD-MSCs) with 160 μM nervonic acid, the expression of adipogenesis-associated signaling molecules at the protein level was compared using Western blotting.\nMore specifically, protein for Western blotting was extracted using the same method as the extraction method described above, and Western blotting was performed using the primary antibodies listed in Table 3 below."}, "[10]": {"test_system": "human bone marrow-derived mesenchymal stem cells (BM-MSCs)", "assay": "Adipogenesis induction, Oil Red O staining quantification", "conditions": "160 μM, days 7 and 14", "protocol": "as §1, §2\nAfter inducing adipogenesis for 7, 14, and 21 days by treating human bone marrow-derived mesenchymal stem cells (BM-MSC) with nervonic acid, the oil droplets stained by Oil Red O staining are shown in FIG. 11a, and the results of quantification of the stained oil droplets are shown in FIG. 11b."}, "[11]": {"conditions": "160 μM, 7, 14 and 21 days (all cases)"}},
  "data": [
    {"molecule": "CCCCCCCC/C=C\\CCCCCCCCCCCCCC(=O)O", "note": "[nervonic acid]", "values": [
      {"measurement": "concentration at which oil droplets were observed", "setting": "[1]", "result": "≥ 160", "unit": "µM"},
      {"measurement": "Adiponectin protein expression, fold increase compared to control group", "setting": "[2]", "result": "2.35±0.55", "unit": "fold"},
      {"measurement": "C/EBPA protein expression, fold increase compared to control group", "setting": "[2]", "result": "1.37±0.08", "unit": "fold"},
      {"measurement": "LPL protein expression, fold increase compared to control group", "setting": "[2]", "result": "1.53±0.15", "unit": "fold"},
      {"measurement": "PPARγ protein expression, fold increase compared to control group", "setting": "[2]", "result": "2.34±0.69", "unit": "fold"},
      {"measurement": "Oil Red O stained oil droplets, fold increase compared to DMSO control group", "setting": "[3]; [11]", "result": "≥ 2", "unit": "fold"},
      {"measurement": "Oil Red O stained oil droplets, fold increase compared to DMSO control group", "setting": "[3]; 160 μM, day 21 (greatest)", "result": "5.61±0.23", "unit": "fold"},
      {"measurement": "cell viability (cytotoxicity)", "setting": "[4]; 72 hours (3 days)", "result": "no significant difference in cell viability"},
      {"measurement": "cell viability (cytotoxicity)", "setting": "[4]; 7 days", "result": "no significant difference in cell viability"},
      {"measurement": "Oil Red O stained oil droplets, fold increase compared to DMSO-treated control group", "setting": "[5]; 7 days", "result": "2.13±0.27", "unit": "fold"},
      {"measurement": "Oil Red O stained oil droplets, fold increase compared to DMSO-treated control group", "setting": "[5]; 14 days", "result": "1.70±0.08", "unit": "fold"},
      {"measurement": "Oil Red O stained oil droplets, fold increase compared to DMSO-treated control group", "setting": "[5]; 21 days", "result": "1.27±0.14", "unit": "fold"},
      {"measurement": "concentration at which adipogenesis was most effectively induced (Oil Red O quantification)", "setting": "[5]; 7 days adipogenesis, 0-280 μM tested", "result": 160, "unit": "µM"},
      {"measurement": "Oil Red O stained oil droplets, fold increase compared to DMSO control group", "setting": "[6]; [11]", "result": "≥ 2", "unit": "fold"},
      {"measurement": "Oil Red O stained oil droplets, fold increase compared to DMSO control group", "setting": "[6]; 160 μM, day 21 (greatest)", "result": "3.87±0.06", "unit": "fold"},
      {"measurement": "Oil Red O stained oil droplets, fold increase compared to DMSO control group", "setting": "[7]; [11]", "result": "≥ 2", "unit": "fold"},
      {"measurement": "Oil Red O stained oil droplets, fold increase compared to DMSO control group", "setting": "[7]; 160 μM, day 21 (greatest)", "result": "9.22±0.15", "unit": "fold"},
      {"measurement": "Adiponectin mRNA expression, fold increase compared to control group", "setting": "[8]", "result": "1.37±0.19", "unit": "fold"},
      {"measurement": "LPL mRNA expression, fold increase compared to control group", "setting": "[8]", "result": "1.44±0.12", "unit": "fold"},
      {"measurement": "PPARγ mRNA expression, fold increase compared to control group", "setting": "[8]", "result": "1.74±0.35", "unit": "fold"},
      {"measurement": "c/EBPa mRNA expression, fold increase compared to control group", "setting": "[8]", "result": "1.66±0.22", "unit": "fold"},
      {"measurement": "AKT phosphorylation ratio (activation indicator), fold increase compared to control group", "setting": "[9]", "result": "1.36±0.16", "unit": "fold"},
      {"measurement": "B-catenin phosphorylation ratio (inactivation indicator), fold increase compared to control group", "setting": "[9]", "result": "1.39±0.06", "unit": "fold"},
      {"measurement": "mTOR phosphorylation ratio (activation indicator), fold increase compared to control group", "setting": "[9]", "result": "1.34±0.14", "unit": "fold"},
      {"measurement": "adipogenesis (Oil Red O) compared to DMSO control group", "setting": "[10]", "result": "slightly increased"}
    ]}
  ]
}
